Results from patent US20060069132A1, “Azolecarboxamide herbicides” (priority 2004, published 2006).

What was measured:
[1] = tested on: barnyardgrass; assay: Test A pre-/postemergence herbicide test; type: in vivo, Echinochloa crus-galli
Summary of the method: (§1)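 Both application timings were run together: directed soil spray over freshly planted seeds in sandy loam, and runoff spray onto 2–10 cm seedlings. Evaluation after ~10 days in greenhouse used a 0–100 visual scale versus untreated controls.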

[2] = tested on: large crabgrass; assay: Test A pre-/postemergence herbicide test; type: in vivo, Digitaria sanguinalis
Summary of the method: as §1

[3] = tested on: redroot pigweed; assay: Test A pre-/postemergence herbicide test; type: in vivo, Amaranthus retroflexus
Summary of the method: as §1

[4] = tested on: blackgrass; assay: Test B postemergence herbicide test; type: in vivo, Alopecurus myosuroides; conditions: scale 0 (no effect) to 100 (complete control)
Summary of the method: (§2)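 Formulated test chemicals went onto postemergence plants measuring 2 to 18 cm, at one to four leaves. For the paddy assay, species had reached two leaves. Scoring took place 13–15 days later by eye, relative to untreated plants, using 0 for no effect up to 100 for full control.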

[5] = tested on: small flower umbrella sedge; assay: Test B flooded paddy test; type: in vivo, Cyperus difformis; conditions: 1000 g ai/ha, visual rating, scale 0 to 100 (0 no effect, 100 complete control), 13 to 15 days
Summary of the method: as §2

[6] = tested on: bermudagrass; assay: Test C pre-/postemergence herbicide test; type: in vivo, Cynodon dactylon; conditions: for Bermudagrass plant response rating: 500 g ai/ha
Summary of the method: (§3)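 Emerged plants at the 1- to 4-leaf stage (2–18 cm), or freshly planted seeds, received test chemicals in a non-phytotoxic solvent mixture with surfactant. Response was visually scored against controls after 12 to 14 days in the greenhouse, on a 0 (no effect) to 100 (complete control) scale.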

[7] = tested on: woolly cupgrass; assay: Test C pre-/postemergence herbicide test; type: in vivo, Eriochloa villosa
Summary of the method: as §3

[8] = tested on: goosegrass; assay: Test C pre-/postemergence herbicide test; type: in vivo, Eleusine indica
Summary of the method: as §3

[9] = Postemergence, 500 g ai/ha, 0 to 100 scale, 0 no effect, 100 complete control
[10] = Postemergence, 2000 g ai/ha, 0 to 100 scale, 0 no effect, 100 complete control
[11] = Preemergence, 500 g ai/ha, visual rating, 0 to 100 scale (0 no effect, 100 complete control)
[12] = Preemergence, 2000 g ai/ha, 0 to 100 scale, 0 no effect, 100 complete control
[13] = 31 g ai/ha, preemergence, scale 0 to 100
[14] = 125 g ai/ha, scale 0 (no effect) to 100 (complete control), visual, 12 to 14 days, preemergence
[15] = Postemergence, 125 g ai/ha, scale 0 to 100, 0 no effect, 100 complete control
[16] = postemergence, 62 g ai/ha, scale 0 to 100
[17] = Preemergence, 2000 g ai/ha, visual rating, 0 to 100 scale (0 no effect, 100 complete control)
[18] = preemergence, 500 g ai/ha, visual injury, 0 to 100 scale (0 no effect, 100 complete control)
[19] = postemergence, 125 g ai/ha, visual rating
[20] = postemergence, 500 g ai/ha, visual rating
[21] = 62 g ai/ha, preemergence, scale 0 to 100, 0 no effect, 100 complete control
[22] = 250 g ai/ha, scale 0-100, preemergence
[23] = Postemergence, 250 g ai/ha, scale 0 to 100, 0 no effect, 100 complete control
[24] = Preemergence, scale 0 to 100, 0 no effect, 100 complete control
[25] = postemergence, 125 g ai/ha, scale 0 to 100
[26] = 62 g ai/ha, preemergence, scale 0 to 100
[27] = 500 g ai/ha, scale 0 to 100 (0 no effect, 100 complete control), visual, 12 to 14 days, preemergence
[28] = Postemergence, 500 g ai/ha, scale 0 to 100
[29] = 250 g ai/ha, scale 0 to 100 (0 no effect, 100 complete control), visual, 12 to 14 days, preemergence
[30] = Preemergence, 500 g ai/ha, scale 0 to 100, 0 no effect, 100 complete control

## CCNC(=O)c1cccc(NC(=O)c2cc(C(C)(C)C)nn2CCF)c1 [Compound 35]
[1]; [9]
  Plant response rating, Barnyardgrass: 70
[1]; [10]
  Plant response rating, Barnyardgrass: 85
[1]; [11]
  Barnyardgrass plant response rating: 70
[1]; [12]
  Barnyardgrass plant response rating: 90
[2]; [9]
  Plant response rating, Crabgrass, Large: 55
[2]; [10]
  Plant response rating, Crabgrass, Large: 60
[2]; [11]
  Crabgrass, Large plant response rating: 95
[2]; [12]
  Crabgrass, Large plant response rating: 100
[3]; [9]
  Plant response rating, Pigweed: 85
[3]; [10]
  Plant response rating, Pigweed: 95
[3]; [11]
  Pigweed plant response rating: 100
[3]; [12]
  Pigweed plant response rating: 100
[4]; Postemergence, 125 g ai/ha
  Blackgrass plant response rating: 20
[4]; Postemergence, 500 g ai/ha, visual rating after 13 to 15 days
  Plant response rating, Blackgrass: 30
[5]
  Sedge, Umbrella plant response rating: 90
[6]; 16 g ai/ha, scale 0 to 100, 0 no effect, 100 complete control, last section of Table C (species set of preemergence test)
  Plant response rating, Bermudagrass: 0
[6]; [13]
  Plant response rating, Bermudagrass: 30
[6]; 62 g ai/ha, preemergence
  Plant response rating (0 = no effect, 100 = complete control), Bermudagrass: 90
[6]; [14]
  Plant response rating, Bermudagrass: 100
[6]; [15]
  Plant response rating, Bermudagrass: 20
[6]; postemergence, 16 g ai/ha, scale 0 to 100
  Plant response rating, Bermudagrass: 0
[6]; [16]
  Plant response rating, Bermudagrass: 0
[7]; [13]
  Plant response rating, Cupgrass, Woolly: 10
[7]; 62 g ai/ha, preemergence
  Plant response rating (0 = no effect, 100 = complete control), Cupgrass, Woolly: 10
[7]; [14]
  Plant response rating, Cupgrass, Woolly: 20
[7]; [15]
  Plant response rating, Cupgrass, Woolly: 60
[7]; [16]
  Plant response rating, Cupgrass, Woolly: 40
[8]; [13]
  Plant response rating, Goosegrass: 20
[8]; 62 g ai/ha, preemergence
  Plant response rating (0 = no effect, 100 = complete control), Goosegrass: 30
[8]; [14]
  Plant response rating, Goosegrass: 70
[8]; [15]
  Plant response rating, Goosegrass: 50
[8]; [16]
  Plant response rating, Goosegrass: 40

## CCc1nc(C(C)(C)C)sc1C(=O)Nc1cccc(C(=O)NCC2CC2)c1 [Compound 212]
[1]; [9]
  Barnyardgrass plant response rating: 50
[1]; [10]
  Plant response rating, Barnyardgrass: 90
[1]; [17]
  Barnyardgrass plant response rating: 85
[1]; [18]
  Barnyardgrass plant response rating: 80
[2]; [9]
  Crabgrass, Large plant response rating: 45
[2]; [10]
  Plant response rating, Crabgrass, Large: 60
[2]; [17]
  Crabgrass, Large plant response rating: 95
[2]; [18]
  Crabgrass, Large plant response rating: 90
[3]; [9]
  Pigweed plant response rating: 75
[3]; [10]
  Plant response rating, Pigweed: 90
[3]; [17]
  Pigweed plant response rating: 100
[3]; [18]
  Pigweed plant response rating: 100
[4]; [19]
  Blackgrass plant response rating: 10
[4]; [20]
  Blackgrass plant response rating: 20
[5]
  Sedge, Umbrella plant response rating: 70
[6]; [21]
  Plant response rating, Bermudagrass: 60
[6]; [14]
  Plant response rating, Bermudagrass: 75
[6]; [22]
  Plant response rating, Bermudagrass: 80
[6]; Postemergence, scale 0 to 100
  Bermudagrass plant response rating: 50
[6]; [23]
  Plant response rating, Bermudagrass: 10
[6]; [24]
  Bermudagrass plant response rating: 100
[6]; [25]
  Plant response rating, Bermudagrass: 0
[6]; [16]
  Plant response rating, Bermudagrass: 0
[7]; [26]
  Plant response rating, Cupgrass, Woolly: 0
[7]; [14]
  Plant response rating, Cupgrass, Woolly: 0
[7]; [22]
  Plant response rating, Cupgrass, Woolly: 20
[7]; [27]
  Plant response rating, Cupgrass, Woolly: 30
[7]; [28]
  Cupgrass, Woolly plant response rating: 40
[7]; [23]
  Plant response rating, Cupgrass, Woolly: 30
[7]; [25]
  Plant response rating, Cupgrass, Woolly: 5
[7]; [16]
  Plant response rating, Cupgrass, Woolly: 5
[8]; [26]
  Plant response rating, Goosegrass: 10
[8]; [14]
  Plant response rating, Goosegrass: 60
[8]; [22]
  Plant response rating, Goosegrass: 95
[8]; [27]
  Plant response rating, Goosegrass: 100
[8]; [28]
  Goosegrass plant response rating: 30
[8]; [23]
  Plant response rating, Goosegrass: 25
[8]; [25]
  Plant response rating, Goosegrass: 10
[8]; [16]
  Plant response rating, Goosegrass: 10

## CCCCOc1cccc(NC(=O)c2cc(C(C)(C)C)nn2CC)c1 [Compound 137]
[1]; [9]
  Barnyardgrass plant response rating: 20
[1]; [10]
  Plant response rating, Barnyardgrass: 25
[1]; [11]
  Barnyardgrass plant response rating: 30
[1]; [17]
  Barnyardgrass plant response rating: 60
[2]; [9]
  Crabgrass, Large plant response rating: 30
[2]; [10]
  Plant response rating, Crabgrass, Large: 60
[2]; [11]
  Crabgrass, Large plant response rating: 55
[2]; [17]
  Crabgrass, Large plant response rating: 90
[3]; [9]
  Pigweed plant response rating: 90
[3]; [10]
  Plant response rating, Pigweed: 100
[3]; [17]
  Pigweed plant response rating: 90
[3]; [18]
  Pigweed plant response rating: 60
[4]; [19]
  Blackgrass plant response rating: 10
[4]; [20]
  Blackgrass plant response rating: 20
[5]
  Sedge, Umbrella plant response rating: 90
[6]; 62 g ai/ha, preemergence
  Plant response rating (0 = no effect, 100 = complete control), Bermudagrass: 50
[6]; [14]
  Plant response rating, Bermudagrass: 100
[6]; [29]
  Plant response rating, Bermudagrass: 100
[6]; [24]
  Bermudagrass plant response rating: 100
[7]; 62 g ai/ha, preemergence
  Plant response rating (0 = no effect, 100 = complete control), Cupgrass, Woolly: 0
[7]; [14]
  Plant response rating, Cupgrass, Woolly: 0
[7]; [29]
  Plant response rating, Cupgrass, Woolly: 5
[7]; [30]
  Cupgrass, Woolly plant response rating: 40
[8]; 62 g ai/ha, preemergence
  Plant response rating (0 = no effect, 100 = complete control), Goosegrass: 40
[8]; [14]
  Plant response rating, Goosegrass: 85
[8]; [30]
  Goosegrass plant response rating: 100

## CCc1nc(C(C)(C)C)sc1C(=O)Nc1cccc(C(=O)N(CC)CC)c1 [Compound 205]
[1]; [9]
  Barnyardgrass plant response rating: 45
[1]; [10]
  Plant response rating, Barnyardgrass: 65
[1]; [17]
  Barnyardgrass plant response rating: 90
[1]; [18]
  Barnyardgrass plant response rating: 80
[2]; [9]
  Crabgrass, Large plant response rating: 10
[2]; [10]
  Plant response rating, Crabgrass, Large: 20
[2]; [17]
  Crabgrass, Large plant response rating: 95
[2]; [18]
  Crabgrass, Large plant response rating: 80
[3]; [9]
  Pigweed plant response rating: 50
[3]; [10]
  Plant response rating, Pigweed: 65
[3]; [17]
  Pigweed plant response rating: 100
[3]; [18]
  Pigweed plant response rating: 100
[4]; [19]
  Blackgrass plant response rating: 0
[4]; [20]
  Blackgrass plant response rating: 20
[5]
  Sedge, Umbrella plant response rating: 60
[6]; [21]
  Plant response rating, Bermudagrass: 90
[6]; [14]
  Plant response rating, Bermudagrass: 100
[6]; [22]
  Plant response rating, Bermudagrass: 100
[6]; [24]
  Bermudagrass plant response rating: 100
[7]; [26]
  Plant response rating, Cupgrass, Woolly: 0
[7]; [14]
  Plant response rating, Cupgrass, Woolly: 10
[7]; [22]
  Plant response rating, Cupgrass, Woolly: 10
[7]; [30]
  Cupgrass, Woolly plant response rating: 50
[8]; [26]
  Plant response rating, Goosegrass: 50
[8]; [14]
  Plant response rating, Goosegrass: 70
[8]; [22]
  Plant response rating, Goosegrass: 80
[8]; [30]
  Goosegrass plant response rating: 95
